{"source": "patent US20240156901A1", "about": "“GAL3BP POLYPEPTIDE COMPOSITIONS AND METHODS FOR TREATMENT OF CANCER AND DETERMINING TREATMENT RESPONSIVENESS” (UNIVERSITY OF PITTSBURGH-OF THE COMMONWEALTH SYSTEM OF …, priority 2021, published 2024)", "molecules": {"B1": {"name": "rGal3BP: recombinant Gal3BP protein; Galectin-3-binding protein, monomer PDB 6GFB used for docking (protein)", "chain": "VNDGDMRLADGGATNQGRVEIFYRGQWGTVCDNLWDLTDASVVCRALGFENATQALGRAAFGQGSGPIMLDEVQCTGTEASLADCKSLGWLKSNCRHERDAGVVCTNETRSTHTLDLSRELSEALGQIFDSQRGCDLSISVNVQGEDALGFCGHTVILTANLEAQALWKEPGSNVTMSVDAECVPMVRDLLRYFYSRRIDITLSSVKCFHKLASAYGARQLQGYCASLFAILLPQDPSFQMPLDLYAYAVATGDALLEKLCLQFLAWNFEALTQAEAWPSVPTDLLQLLLPRSDLAVPSELALLKAVDTWSWGERASHEEVEGLVEKIRFPMMLPEELFELQFNLSLYWSHEALFQKKTLQALEFHTVPFQLLARYKGLNLTEDTYKPRIYTSPTWSAFVTDSSWSARKSQLVYQSRRGPLVKYSSDYFQAPSDYRYYPYQSFQTPQHPSFLFQDKRVSWSLVYLPTIQSCWNYGFSCSSDELPVLGLTKSGGSDRTIAYENKALMLCEGLFVADVTDFEGWKAAIPSALDTNSSKSTSSFPCPAGHFNGFRTVIRPFYLTNSSGVD"}}, "key": {"QPP7 glioma": {"tested_on": "QPP7 glioma", "assay": "Peptide treatment of orthotopic syngeneic QPP7 glioma (MRI, survival)", "conditions": "orthotopic syngeneic mice bearing QPP7 glioma; local delivery into the brain; vs SCP", "quoted_text": "(§2) Male and female ICR SCID and C57BL/6 mice (4-6 weeks of age) were purchased from Taconic Biosciences and The Jackson Laboratory, respectively. The intracranial xenograft tumor models were established as previously described (Hu B et al., 2016). Cells in 5 μL DPBS were injected at the following numbers: TS543 vector control or CHI3L1 overexpression (OE), 1×10^4 cells; QPP7 scrambled control or CHI3L1 knockdown (KD), 1×10^5 cells; and GL261 vector control or CHI3L1 OE, 1×10^5 cells. […] For mice treated with peptides, 5 uL of 20 uM SCP or GMP was delivered into the mouse brain every 4 days with a total of seven times.\n(§3) MRI and bioluminescent imaging of mice were performed at Rangos Research Center Animal Imaging Core. The tumor size of mice detected by MRI was analyzed with ITK-SNAP.\nFor intracranial xenograft tumor models treated with peptides, mice were implanted with a guide screw prior to intracranial injection. […]\n(§4) All mice received general inhalation anesthesia with Isoflurane for in vivo brain imaging. […] Depth of anesthesia was monitored by toe reflex (extension of limbs, spine positioning) and respiration rate. […] Respiration was monitored using a pneumatic sensor placed between the animal bed and the mouse's abdomen, rectal temperature was measured with a fiberoptic sensor, and core temperature was maintained at 36.8±0.2° C. with a feedback-controlled warm air source (SA Instruments). […]"}, "GL261-CHI3L1 glioma": {"tested_on": "GL261-CHI3L1 glioma", "assay": "Flow cytometry of immune cell populations in GL261-CHI3L1 glioma after peptide treatment", "format": "in vivo, mouse", "method": "Mice with neurological deficits or moribund appearance were sacrificed. Tumors were separated and homogenized for 15 min at 37° C. in Collagenase IV Cocktail (3.2 mg/mL collagenase type IV, 2 mg/mL soybean trypsin inhibitor, and 1.0 mg/mL deoxyribonuclease I; Worthington Biochemical). Red blood cells were lysed using ACK lysing buffer (Gibco). Cell suspensions were filtered through 70-μm strainers, centrifuged, and resuspended in cold FACS buffer (DPBS with 1% BSA) for further analysis.\nAbout 3×10^6 cells were used for each staining panel. Cells were incubated with 1.0 μg of TruStain fcX (BioLegend) for 10 min on ice to block Fc receptors, followed by staining with the combination of indicated antibodies. After staining, cells were washed with FACS buffer three times and incubated with Fixation Buffer (BioLegend) at RT for 20 min. Cells were washed with FACS buffer, resuspended in Cyto-Last Buffer (BioLegend), and analyzed by either a BD LSRFortessa or BD FACSAria II SORP. For CyTOF, samples were prepared as described above for flow cytometry. Three pairs of samples (scrambled shRNA vs Chi3l1 KD) with similar tumor sizes were chosen and the staining procedure was followed as previously described (Mitsialis V, et al., 2020). The samples were analyzed on a Helios2 CyTOF system (Fluidigm) at the Longwood Medical Area CyTOF Core. Additional information about flow cytometry antibodies is provided in the Supplementary Material and Methods section."}, "[1]": {"tested_on": "bone-marrow derived macrophages (BMDMs)", "assay": "Scratch-wound healing assay, BMDM migration", "format": "cell-based, mouse", "method": "(§1) BMDMs were isolated from male and female C57BL/6 mice as previously described (Ying W et al., 2013). Briefly, femur bones were isolated from mice, and IMDM (ATCC) supplemented with 10% FBS and P/S was used to flush the bone marrow into a petri dish. After 4-6-hour incubation, the floating cells were collected and resuspended in the medium with 20 ng/mL M-CSF (PrproTech). On day 6, the fully differentiated cells were designated as an M0 state. To induce BMDM polarization toward an M1 state, 100 ng/mL LPS (Invitrogen) and 50 ng/mL IFNγ (PrproTech) were added to the M0 cells for 24 hours. To induce BMDM polarization toward an M2 state, 20 ng/mL IL-4 (PrproTech) was added to the M0 cells for 72 hours.\nBMDM were polarized to the indicated status (M0, M1, or M2) and seeded in 12-well plates at 80-90% confluency. The cells were switched to the medium without FBS for 6 hours of starvation. Scratches were made using pipettor tips and fresh IMDM with indicated recombinant proteins and/or peptides were added. Images of the scratches were captured at indicated times. For the SIM-A9 scratch-wound healing assay, 12-well plates were coated with 10 μg/mL fibronectin (Sigma-Aldrich) at 37° C. overnight before seeding cells."}, "[2]": {"target": "T1, binding of CHI3L1 and Gal3 (Homo sapiens, UniProt P36222)", "T1 construct": "endogenous in cells; host or cells: THP-1 cells", "T1 sequence (P36222 22-383)": "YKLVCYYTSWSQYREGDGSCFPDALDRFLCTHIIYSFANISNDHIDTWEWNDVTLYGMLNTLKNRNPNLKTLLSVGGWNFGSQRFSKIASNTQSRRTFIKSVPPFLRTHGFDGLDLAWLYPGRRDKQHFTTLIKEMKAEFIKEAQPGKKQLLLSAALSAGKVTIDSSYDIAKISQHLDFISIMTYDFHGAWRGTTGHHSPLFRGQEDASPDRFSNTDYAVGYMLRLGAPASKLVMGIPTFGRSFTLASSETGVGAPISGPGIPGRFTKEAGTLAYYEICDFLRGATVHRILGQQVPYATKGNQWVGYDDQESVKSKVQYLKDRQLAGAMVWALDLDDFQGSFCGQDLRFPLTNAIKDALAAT", "assay": "Co-IP with Gal3 antibody in THP-1 cells treated with peptides", "conditions": "20 μM for 24 hours", "quoted_text": "TS603 cells overexpressing CHI3L1 with V5 tag (TS603 CHI3L1_V5_OE) or THP-1 cells treated with the peptides were collected and protein-protein interaction was crosslinked with 2 mM Dithiobis (succinimidyl propionate, DSP). Membrane proteins were extracted with the Membrane Protein Extraction Kit (ThermoFisher, Cat #89842) and ˜500 μg of protein was used for Co-IP assay by the Co-Immunoprecipitation Kit (ThermoFisher, Cat #26149).\n(§5) For in vivo THP-1 cell or in vitro recombinant protein Co-IP experiments, additional following antibodies were used: Mouse anti-CHI3L1 (Santa Cruz Biotechnology, Cat #SC-393590), Rat anti-Galectin-3 (Santa Cruz Biotechnology, Cat #SC-23938), anti-Galectin-3BP (Santa Cruz Biotechnology, Cat #SC-374541), Rabbit anti-CHI3L1 (Cell Signaling Technology, Cat #47066), and Rat IgG (BioXCell, Cat #BE0090)."}, "Gal3/CHI3L1": {"tested_on": "Gal3/CHI3L1", "assay": "Inhibition of Gal3/CHI3L1 by Gal3BP polypeptides", "conditions": "SEQ ID NO: 4 as compared to SEQ ID NO: 5"}, "[3]": {"tested_on": "GL261-CHI3L1 orthotopic tumors", "assay": "Peptide treatment of GL261-CHI3L1 orthotopic tumors (MRI, survival)", "quoted_text": "as §2, §3\nFor intracranial xenograft tumor models treated with peptides, mice were implanted with a guide screw prior to intracranial injection. To install the screw, mice were anesthetized by intraperitoneal (IP) injection with ketamine/xylazine solution (1.75 mL of 100 mg/mL ketamine and 0.25 mL of 100 mg/mL xylazine in 8 mL sterile water) at a dosage of 100 μL/20 g body weight. The screw was covered by sealing the skin, and mice were allowed to recover for one week before intracranial implantation. GL261 cells overexpressing CHI3L1 (1×10^5) were injected in 5 μL of DPBS containing 20 μM of either scrambled control peptide (SCP) or Gal3BP mimetic peptide (GMP). SCP (20 μM) or GMP (20 μM) was subsequently given once every 3 days with a total of seven times by intracranial injection via the guide screw.\nas §4"}, "PI3K/AKT/mTOR pathway": {"tested_on": "PI3K/AKT/mTOR pathway", "assay": "Immunoblot of PI3K/AKT/mTOR signaling and transcription factors in M0 BMDMs", "format": "cell-based, mouse", "conditions": "30 minutes", "method": "Cells were lysed on ice using RIPA buffer (Millipore) supplemented with protease and phosphatase inhibitors (Roche). The protein concentration was determined by the BCA method and 15˜30 ug of total proteins were loaded and analyzed by Western blotting with indicated antibodies. For IHC staining, brain tissues were fixed in 10% formalin overnight and embedded in paraffin. For IF staining, fresh brain tissues were immediately frozen in OCT on dry ice. IHC and IF staining were performed as we described previously (Hu B et al., 2016). Additional information about antibodies is provided in the Supplementary Material and Methods section\nImmunoblotting (IB), Immunohistochemistry (IHC), and Immunofluorescence (IF). […]"}, "[4]": {"target": "T2, Gal3 and CHI3L1 protein binding (Homo sapiens, UniProt P36222)", "T2 construct": "purchased R&D Systems 2599-CH-050 (CHI3L1); 8259-GA-050 (Galectin-3)", "T2 sequence (P36222 22-383)": "as above", "assay": "In vitro recombinant protein Co-IP competition (rGal3 + rCHI3L1 + increasing rGal3BP)", "conditions": "200 ng rGal3+200 ng rCHI3L1; rGal3BP 0-800 ng/sample; with or without TD139", "from_the_text": "as §5"}, "[5]": {"tested_on": "Arg1, Ym1, Ccl2, Il10 gene expression", "assay": "qRT-PCR of immune suppression genes in M0 BMDMs", "format": "cell-based, mouse", "conditions": "rCHI3L1 2.5 μg/mL, rGal3 2.5 μg/mL, rGal3BP 5.0 μg/mL, 24 hours", "method": "as §1\nRNA was extracted and cDNA was synthesized as described previously (Hu B et al., 2016). qRT-PCR was performed using PowerSYBR Green PCR Master Mix (Applied Biosystems) and detected with a StepOnePlus Real-Time PCR System (Applied Biosystems). Each reaction was performed in duplicate or triplicate. The relative expression of genes was normalized to human RPL39 or mouse 18S ribosomal RNA. For RNA-seq experiments, cells from intracranial xenograft tumors were isolated and incubated with antibodies for immune cell types. Macrophages were isolated by FACS and RNA was then isolated and sent to Health Sciences Sequencing Core at UPMC Children's Hospital of Pittsburgh for RNA-seq. […]"}, "[6]": {"tested_on": "bone-marrow derived macrophages (BMDMs)", "assay": "Transwell migration assay, BMDM migration", "format": "cell-based, mouse", "conditions": "rCHI3L1 2.5 μg/mL, rGal3BP 5.0 μg/mL", "method": "as §1\nPolarized BMDMs were starved by removing FBS for 6 hours. Cells were collected and 2×10^5 cells in 200 μL of IMDM were added into each transwell insert (Millipore, Cat #MCMP24H48). 700 μL of IMDM containing 2% FBS and the indicated recombinant proteins was added to the bottom of the plates. After 14-hour incubation, transwell inserts were stained with HEMA 3 Stain Set (Fisher Scientific). Insert membranes were separated and mounted on glass slides with CYTOSEAL XYL (ThermoFisher) and images were taken by an inverted microscope (Leica DM 2500). For the SIM-A9 cells, the inserts were coated with 10 μg/mL fibronectin overnight in advance of seeding cells."}, "[7]": {"conditions": "GL261-CHI3L1 tumors, GMP in contrast to SCP"}, "[8]": {"conditions": "GMP-treated vs SCP-treated tumors, GL261-CHI3L1 model"}}, "data": [{"molecule": "TLDLSRELSEALGQI [GMP]", "values": [{"measurement": "mouse survival", "setting": "QPP7 glioma", "value": "increased mouse survival"}, {"measurement": "tumor size", "setting": "QPP7 glioma", "value": "decreased tumor size"}, {"measurement": "CD8+ cells", "setting": "GL261-CHI3L1 glioma; [7]", "value": "significantly increased"}, {"measurement": "T cells (CD3+)", "setting": "GL261-CHI3L1 glioma; [7]", "value": "significantly increased"}, {"measurement": "PD-L1 expression in CD45+, CD8+ and CD4+ cells", "setting": "GL261-CHI3L1 glioma; GMP treatment", "value": "only a decreasing trend"}, {"measurement": "PD-L1 expression in glioma cells", "setting": "GL261-CHI3L1 glioma; GMP treatment", "value": "significantly decreased"}, {"measurement": "CTLA-4 level in CD4+ T cells", "setting": "GL261-CHI3L1 glioma; GMP vs SCP", "value": "a trend of elevated levels"}, {"measurement": "PD-1 level in CD4+ T cells", "setting": "GL261-CHI3L1 glioma; GMP vs SCP", "value": "a trend of elevated levels"}, {"measurement": "CTLA-4 expression in CD8+ T cells", "setting": "GL261-CHI3L1 glioma; [8]", "value": "significantly upregulated"}, {"measurement": "PD-1 expression in CD8+ T cells", "setting": "GL261-CHI3L1 glioma; [8]", "value": "significantly upregulated"}, {"measurement": "PD-L1 expression in CD45+, CD8+ immune cells, and glioma cells", "setting": "GL261-CHI3L1 glioma; preclinical mouse models, as restated in Example 8", "value": "significantly decrease"}, {"measurement": "CD4+ cell population", "setting": "GL261-CHI3L1 glioma; tumors of C57BL/6 mice bearing GL261-CHI3L1", "value": "41.9±4.5", "unit": "%"}, {"measurement": "M2-like TAMs", "setting": "GL261-CHI3L1 glioma; tumors of C57BL/6 mice bearing GL261-CHI3L1, mean±SEM, P=0.0536", "value": "42.8±3.8", "unit": "%"}, {"measurement": "M1-like TAMs", "setting": "GL261-CHI3L1 glioma; tumors of C57BL/6 mice bearing GL261-CHI3L1, mean±SEM, P=0.0719", "value": "49.5±4.0", "unit": "%"}, {"measurement": "rCHI3L1-induced BMDM migration, dose dependence", "setting": "[1]; M2 BMDMs, rCHI3L1 0.6 μg/mL, different concentrations of peptide, 6 hours", "value": "inhibits rCHI3L1-induced BMDM migration in a dose-dependent manner"}, {"measurement": "rCHI3L1-promoted M2 BMDM migration", "setting": "[1]; rCHI3L1 0.6 μg/mL, peptide 30 μM, compared with SCP", "value": "significantly inhibited"}, {"measurement": "rCHI3L1+rGal3-induced M0 BMDM migration", "setting": "[1]; rCHI3L1 2.5 μg/mL, rGal3 2.5 μg/mL, peptide 30 μM, in contrast to SCP", "value": "attenuated"}, {"measurement": "binding of CHI3L1 and Gal3 (Co-IP)", "setting": "[2]", "value": "decreasing binding of CHI3L1 and Gal3"}, {"measurement": "inhibition of Gal3/CHI3L1", "setting": "Gal3/CHI3L1", "value": "increased inhibition"}, {"measurement": "tumor growth (T2 MRI)", "setting": "[3]; C57BL/6 mice bearing GL261-CHI3L1, GMP compared to SCP", "value": "reduced tumor growth"}, {"measurement": "median survival", "setting": "[3]; C57BL/6 mice bearing GL261-CHI3L1 orthotopic tumors, 20 μM peptide into brain tumor via guide screw", "value": 36, "unit": "days"}]}, {"molecule": "B1", "values": [{"measurement": "levels of p-AKT (T473 and S308), p-S6, and p-mTOR", "setting": "PI3K/AKT/mTOR pathway", "value": "inhibited"}, {"measurement": "rCHI3L1-induced M2 BMDM migration", "setting": "[1]; rCHI3L1 2.5 μg/mL, rGal3BP 5.0 μg/mL, scratch-wound healing", "value": "significantly attenuated"}, {"measurement": "competition with Gal3 for binding CHI3L1 (Co-IP)", "setting": "[4]", "value": "compete for the same binding site in CHI3L1"}, {"measurement": "expression of genes related to anti-inflammation (Arg1, Ym1, Ccl2, Il10)", "setting": "[5]", "value": "significantly inhibited"}, {"measurement": "rCHI3L1-induced M2 BMDM migration", "setting": "[6]", "value": "significantly attenuated"}]}]}
